Assay [1] addresses T1, hMC4-R (Homo sapiens, UniProt P32245).
T1 construct: expressed in transfected cells; host or cells: CHO-K1
Briefly: cyclic AMP bioassay (ECL) in CHO-K1 cells. In kind it is cell-based. Particulars: for Kb: Table 9C/9D, antagonist potency by Schild analysis, read-out: Kb MC4-R.

Assay [2] deals with T2, hMC5-R (Homo sapiens, UniProt P33032).
T2 construct: expressed in transfected cells; host or cells: CHO-K1
Briefly: cyclic AMP bioassay (ECL) in CHO-K1 cells. The class given is cell-based.

Assay [3] has as its target T3, hMC1-R (Homo sapiens, UniProt Q01726).
T3 construct: expressed in transfected cells; host or cells: CHO-K1
As to the kind of experiment: cyclic AMP bioassay (ECL) in CHO-K1 cells. In kind it is cell-based.

The target in assay [4] is T4, hMC3-R (Homo sapiens, UniProt P41968).
T4 construct: expressed in transfected cells; host or cells: CHO-K1
As to the kind of experiment: Radioligand binding assay, [125I]-NDP-α-MSH competition, CHO-K1 membranes.

Assay [5] deals with T2, hMC5-R. The description is as above.
Assay [6] concerns the target T1, hMC4-R. Described as above.
Assay [7] concerns the target T3, hMC1-R. The assay is described as above.
For assay [8], the target named is T4, hMC3-R. Briefly: cyclic AMP bioassay (ECL) in CHO-K1 cells. Conditions: for Kb: Table 9C/9D, antagonist potency by Schild analysis, read-out: Kb hMC3-R. The class given is cell-based.
[9] abbreviates: Table 9C/9D, read-out: EC50 hMC5-R.
The mark [10] stands for this setting: Table 9C/9D, read-out: EC50 hMC1-R.
The mark [11] stands for this setting: Table 9A/9B, read-out: EC50 hMC4-R.
Where [12] appears, read: Table 9A/9B, read-out: EC50 hMC5-R.
The mark [13] stands for this setting: Table 9A/9B, read-out: EC50 hMC1-R.
Setting [14] is: Table 9A/9B, read-out: EC50 hMC3-R.

Each structure is given as a SMILES string. Like-named read-outs stand apart in the source and are kept apart here. Bridge positions count the residues as written; N and C are the ends. Square brackets hold non-standard residues; d marks the D form. Peptide text beside a SMILES is read from it. Bip = N[C@@H](Cc1ccc(-c2ccccc2)cc1)C(=O)O; 1Nal = N[C@@H](Cc1cccc2ccccc12)C(=O)O; d2Nal = N[C@H](Cc1ccc2ccccc2c1)C(=O)O; hArg = N=C(N)NCCCC[C@H](N)C(=O)O; Nle = CCCC[C@H](N)C(=O)O; Ahx = NCCCCCC(=O)O; GABA = NCCCC(=O)O; βAla = NCCC(=O)O

T2 sequence (P33032 whole entry): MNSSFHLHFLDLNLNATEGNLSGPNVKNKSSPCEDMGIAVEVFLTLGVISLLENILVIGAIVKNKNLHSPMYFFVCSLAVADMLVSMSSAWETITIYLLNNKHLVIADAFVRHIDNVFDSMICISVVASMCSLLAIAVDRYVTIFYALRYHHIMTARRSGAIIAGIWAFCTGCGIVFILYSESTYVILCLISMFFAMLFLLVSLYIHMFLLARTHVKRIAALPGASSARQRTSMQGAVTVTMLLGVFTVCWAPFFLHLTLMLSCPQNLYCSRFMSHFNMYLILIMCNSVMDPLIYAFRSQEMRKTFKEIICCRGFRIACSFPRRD
T1 sequence (P32245 whole entry): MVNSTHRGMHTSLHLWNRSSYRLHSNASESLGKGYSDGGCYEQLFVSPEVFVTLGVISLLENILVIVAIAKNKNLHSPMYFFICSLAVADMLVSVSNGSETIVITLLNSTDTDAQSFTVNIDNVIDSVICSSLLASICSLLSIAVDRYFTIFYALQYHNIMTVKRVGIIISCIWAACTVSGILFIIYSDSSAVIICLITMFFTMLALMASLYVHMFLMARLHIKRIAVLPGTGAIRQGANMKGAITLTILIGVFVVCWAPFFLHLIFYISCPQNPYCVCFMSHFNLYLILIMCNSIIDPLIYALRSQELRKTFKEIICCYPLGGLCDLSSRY
T3 sequence (Q01726 whole entry): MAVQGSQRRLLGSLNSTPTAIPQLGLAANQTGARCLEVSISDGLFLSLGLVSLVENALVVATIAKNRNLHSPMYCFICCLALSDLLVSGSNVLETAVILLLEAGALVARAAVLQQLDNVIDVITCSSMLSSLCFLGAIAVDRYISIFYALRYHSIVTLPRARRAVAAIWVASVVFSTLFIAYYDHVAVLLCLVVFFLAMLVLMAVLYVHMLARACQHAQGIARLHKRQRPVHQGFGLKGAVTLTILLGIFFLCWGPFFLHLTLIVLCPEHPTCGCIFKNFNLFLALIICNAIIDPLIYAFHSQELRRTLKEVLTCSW
T4 sequence (P41968 whole entry): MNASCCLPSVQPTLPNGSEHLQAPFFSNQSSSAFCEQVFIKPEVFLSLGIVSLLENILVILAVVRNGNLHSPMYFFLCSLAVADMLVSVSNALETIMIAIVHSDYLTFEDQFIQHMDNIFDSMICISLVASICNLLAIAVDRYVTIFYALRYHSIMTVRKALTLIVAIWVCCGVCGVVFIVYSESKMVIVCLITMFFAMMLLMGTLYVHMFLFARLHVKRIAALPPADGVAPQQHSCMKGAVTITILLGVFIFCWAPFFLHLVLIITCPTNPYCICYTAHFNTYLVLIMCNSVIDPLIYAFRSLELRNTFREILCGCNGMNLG

For `CCCC[C@H](NC(C)=O)C(=O)N[C@H]1CSSC[C@@H](C(N)=O)NC(=O)[C@H](Cc2c[nH]c3ccccc23)NC(=O)[C@H](CCCNC(=N)N)NC(=O)[C@@H](Cc2ccccc2)NC(=O)[C@H](Cc2c[nH]cn2)NC(=O)[C@@H](C)NC1=O` [Ac-Nle-c(Cys-D-Ala-His-D-Phe-Arg-Trp-Cys)-NH2], the concentration giving a half-maximal response (EC50) in assay [1] amounted to 0.078 nM; in assay [2] it was 420 nM; in assay [3], 2.4 nM; in assay [8] it was 0.33 nM. Further, the Ki is 26 nM in assay [4] (Ki hMC3-R, Table 5); 1800 nM in assay [5] (Ki hMC5-R, Table 5); 7.6 nM in assay [6] (Ki KMC4-R, Table 5); 11 nM in assay [7] (Ki hMC1-R, Table 5).

As for `CCCC[C@H](NC(C)=O)C(=O)N[C@H]1CSSC[C@@H](C(N)=O)NC(=O)CCCNC(=O)[C@H](Cc2c[nH]c3ccccc23)NC(=O)[C@H](CCCNC(=N)N)NC(=O)[C@@H](Cc2ccc3ccccc3c2)NC(=O)[C@H](Cc2c[nH]cn2)NC1=O` [Ac-Nle-c(Cys-His-D-2-Nal-Arg-Trp-Gaba-Cys)-NH2] (Ac-[Nle]CH[d2Nal]RW[GABA]C-NH2; disulfide 2-8), the Kb in assay [1] was found to be 0.782 nM; in assay [8], 18.4 nM. Also, the EC50 in assay [2] (setting [9]) came out at 0.153 nM; in assay [3] (setting [10]), 0.231 nM. For the same compound, the Ki amounted to 1.86 nM in assay [4] (Table 5, read-out: Ki hMC3-R); 1.11 nM in assay [5] (Table 5, read-out: Ki hMC5-R); 0.375 nM in assay [6] (Table 5, read-out: Ki KMC4-R); 0.393 nM in assay [7] (Table 5, read-out: Ki hMC1-R).

`CCCC[C@H](NC(C)=O)C(=O)N[C@H]1CSSC[C@@H](C(N)=O)NC(=O)[C@H](Cc2cccc3ccccc23)NC(=O)[C@H](CCCNC(=N)N)NC(=O)[C@@H](Cc2ccc3ccccc3c2)NC(=O)[C@H](Cc2c[nH]cn2)NC(=O)[C@@H](C)NC1=O` [Ac-Nle-c(Cys-D-Ala-His-D-2-Nal-Arg-1-Nal-Cys)-NH2] (Ac-[Nle]C[dA]H[d2Nal]R[1Nal]C-NH2; disulfide 2-8): the results for the antagonist equilibrium constant (Kb) in assay [1] and in assay [8] were 53.6 nM and 61.5 nM, respectively. Moreover, the concentration giving a half-maximal response (EC50) in assay [2] (setting [9]) came to 2840 nM; in assay [3] (setting [10]) it was 383 nM. In addition, the Ki stood at 63.9 nM in assay [4] (Table 5, read-out: Ki hMC3-R); 1660 nM in assay [5] (Table 5, read-out: Ki hMC5-R); 3.07 nM in assay [6] (Table 5, read-out: Ki KMC4-R); 114 nM in assay [7] (Table 5, read-out: Ki hMC1-R).

As to `CCOc1ccc(C[C@H]2NC(=O)[C@H](Cc3c[nH]cn3)NC(=O)[C@@H](NC(=O)[C@H](N)Cc3ccccc3)CSSC[C@H](C(=O)N[C@H](C(N)=O)[C@@H](C)O)NC(=O)CCNC(=O)[C@H](Cc3c[nH]c4ccccc34)NC(=O)[C@H](CCCCNC(=N)N)NC2=O)cc1` [D-Phe-c(Cys-His-D-(Et)Tyr-hArg-Trp-β-Ala-D-Cys)-Thr-NH2] (H-[dF]CH[dY](Et)[hArg]W[βAla][dC]T-NH2; disulfide 2-8), the EC50 in assay [1] (setting [11]) came out at 5.38 nM; in assay [2] (setting [12]) it was 2.38 nM; in assay [3] (setting [13]), 0.345 nM; in assay [8] (setting [14]), 2.71 nM. Also, the Ki in assay [4] (Table 5, read-out: Ki hMC3-R) came to 31.4 nM; in assay [5] (Table 5, read-out: Ki hMC5-R), 9.27 nM; in assay [6] (Table 5, read-out: Ki KMC4-R), 14.7 nM; in assay [7] (Table 5, read-out: Ki hMC1-R), 0.0567 nM.

Take `CCOc1ccc(C[C@H]2NC(=O)[C@H](Cc3c[nH]cn3)NC(=O)[C@@H](NC(=O)[C@H](N)Cc3ccccc3)CSSC[C@H](C(=O)N[C@H](C(N)=O)[C@@H](C)O)NC(=O)CCNC(=O)[C@H](Cc3ccc(-c4ccccc4)cc3)NC(=O)[C@H](CCCCNC(=N)N)NC2=O)cc1` [D-Phe-c(Cys-His-D-(Et)Tyr-hArg-Bip-β-Ala-D-Cys)-Thr-NH2] (H-[dF]CH[dY](Et)[hArg][Bip][βAla][dC]T-NH2; disulfide 2-8): the EC50 in assay [1] (setting [11]) is 86.9 nM; in assay [2] (setting [12]), 31.8 nM; in assay [3] (setting [13]), 0.685 nM; in assay [8] (setting [14]) it was 81.8 nM. For the same compound, the inhibition constant (Ki) in assay [4] (Table 5, read-out: Ki hMC3-R) came to 85.6 nM; in assay [5] (Table 5, read-out: Ki hMC5-R), 38 nM; in assay [6] (Table 5, read-out: Ki KMC4-R), 36.9 nM; in assay [7] (Table 5, read-out: Ki hMC1-R) it was 0.128 nM.

As for `CCCC[C@H](NC(C)=O)C(=O)N[C@H]1CSSC[C@@H](C(N)=O)NC(=O)CCCCCNC(=O)[C@H](Cc2c[nH]c3ccccc23)NC(=O)[C@H](CCCNC(=N)N)NC(=O)[C@@H](Cc2ccc3ccccc3c2)NC(=O)[C@H](Cc2c[nH]cn2)NC1=O` [Ac-Nle-c(Cys-His-D-2-Nal-Arg-Trp-Ahx-Cys)-NH2] (Ac-[Nle]CH[d2Nal]RW[Ahx]C-NH2; disulfide 2-8 (inferred)), the Kb turned out to be 0.967 nM in assay [1] and 10.8 nM in assay [8]. Moreover, the half-maximal effective concentration (EC50) in assay [2] (setting [9]) came to 0.126 nM; in assay [3] (setting [10]), 0.581 nM. In addition, the Ki in assay [4] (Table 5, read-out: Ki hMC3-R) was 2.91 nM; in assay [5] (Table 5, read-out: Ki hMC5-R), 0.366 nM; in assay [6] (Table 5, read-out: Ki KMC4-R) it was 0.998 nM; in assay [7] (Table 5, read-out: Ki hMC1-R) it was 0.333 nM.

For `C[C@@H](O)[C@H](NC(=O)[C@H]1CSSC[C@H](NC(=O)[C@H](N)Cc2ccccc2)C(=O)N[C@@H](Cc2c[nH]cn2)C(=O)N[C@H](Cc2ccccc2)C(=O)N[C@@H](CCCNC(=N)N)C(=O)N[C@@H](Cc2ccc(-c3ccccc3)cc2)C(=O)NCCC(=O)N1)C(N)=O` [D-Phe-c(Cys-His-D-Phe-Arg-Bip-β-Ala-D-Cys)-Thr-NH2] (H-[dF]CH[dF]R[Bip][βAla][dC]T-NH2; disulfide 2-8), the Ki came out at 3370 nM in assay [4] (Table 5, read-out: Ki hMC3-R); 1130 nM in assay [5] (Table 5, read-out: Ki hMC5-R); 583 nM in assay [6] (Table 5, read-out: Ki KMC4-R); 5.8 nM in assay [7] (Table 5, read-out: Ki hMC1-R).

For `C[C@@H]1C(=O)N[C@@H](Cc2cnc[nH]2)C(=O)N[C@H](Cc2ccccc2)C(=O)N[C@@H](CCCNC(=N)N)C(=O)N[C@@H](Cc2c[nH]c3ccccc23)C(=O)N[C@H](C(N)=O)CCNC(=O)CC[C@@H]2NC(=O)N1C2=O` [c[Hydantoin(C(O)-(Glu-D-Ala))-His-D-Phe-Arg-Trp-Dab]-NH2], the inhibition constant (Ki) worked out at 90.5 nM in assay [4] (Table 7, read-out: Ki hMC3); 877 nM in assay [5] (Table 7, read-out: Ki hMC5); 12.7 nM in assay [6] (Table 7, read-out: Ki hMC4); 28 nM in assay [7] (Table 7, read-out: Ki hMC1).

For `C[C@@H](O)[C@H](NC(=O)[C@H]1CSSC[C@H](NC(=O)[C@H](N)Cc2ccccc2)C(=O)N[C@@H](Cc2c[nH]cn2)C(=O)N[C@H](Cc2ccccc2)C(=O)N[C@@H](CCCNC(=N)N)C(=O)N[C@@H](Cc2c[nH]c3ccccc23)C(=O)NCCC(=O)N1)C(N)=O` [D-Phe-c(Cys-His-D-Phe-Arg-Trp-β-Ala-D-Cys)-Thr-NH2] (H-[dF]CH[dF]RW[βAla][dC]T-NH2; disulfide 2-8), the inhibition constant Ki stood at 43.2 nM in assay [4] (Table 5, read-out: Ki hMC3-R); 344 nM in assay [5] (Table 5, read-out: Ki hMC5-R); 2.58 nM in assay [6] (Table 5, read-out: Ki KMC4-R); 0.207 nM in assay [7] (Table 5, read-out: Ki hMC1-R).

Regarding `C[C@@H](O)[C@H](NC(=O)[C@H]1CSSC[C@H](NC(=O)[C@H](N)Cc2ccccc2)C(=O)N[C@@H](Cc2c[nH]cn2)C(=O)N[C@H](Cc2ccccc2)C(=O)N[C@@H](CCCCNC(=N)N)C(=O)N[C@@H](Cc2ccc(-c3ccccc3)cc2)C(=O)NCCC(=O)N1)C(N)=O` [D-Phe-c(Cys-His-D-Phe-hArg-Bip-β-Ala-D-Cys)-Thr-NH2] (H-[dF]CH[dF][hArg][Bip][βAla][dC]T-NH2; disulfide 2-8 (inferred)), the inhibition constant Ki was 1260 nM in assay [4] (Table 5, read-out: Ki hMC3-R); 1220 nM in assay [5] (Table 5, read-out: Ki hMC5-R); 172 nM in assay [6] (Table 5, read-out: Ki KMC4-R); 1.68 nM in assay [7] (Table 5, read-out: Ki hMC1-R).

For the compound `CC(=O)N[C@@H](Cc1ccccc1)C(=O)N[C@H]1CSSC[C@@H](C(N)=O)NC(=O)CCCNC(=O)[C@H](Cc2c[nH]c3ccccc23)NC(=O)[C@H](CCCNC(=N)N)NC(=O)[C@@H](Cc2ccccc2)NC(=O)[C@H](Cc2c[nH]cn2)NC1=O` [Ac-Phe-c(Cys-His-D-Phe-Arg-Trp-Gaba-Cys)-NH2] (Ac-FCH[dF]RW[GABA]C-NH2; disulfide 2-8), the Ki in assay [4] (Ki hMC3-R) was found to be 18.5 nM; in assay [5] (Ki hMC5-R), 0.714 nM; in assay [6] (Ki KMC4-R), 2.13 nM; in assay [7] (Ki hMC1-R), 0.254 nM.

Broadly, the EC50 is the concentration at which the effect is half-maximal. One may read the Ki as the dissociation constant of the complex between target and ligand, obtained from inhibition or displacement. By Kb is commonly meant the affinity of an antagonist, worked out from how it opposes an agonist.

(Values after US20120135923A1, “Use of Melanocortins to Treat Dyslipidemia” (IPSEN PHARMA, S.A.S., priority 2009, published 2012).)
